From publication PMC10222839, “Development of Novel Small-Molecule Activators of Pyruvate Kinase Muscle Isozyme 2, PKM2, to Reduce Photoreceptor Apoptosis” (Pharmaceuticals, 2023) come the findings set out here.

Values after ≈ are worked out from the molar mass of the structure shown.

What is called AC50 is the concentration at which the activity in the assay is half-maximal. One may read the solubility as the concentration that dissolves in the medium under given conditions. A higher solubility goes with a readily soluble substance.

The target in one data set is T1, human recombinant PKM2 (Homo sapiens, UniProt P14618).
T1 construct: purchased Sigma SAE0021
Description: Pyruvate kinase enzyme-coupled (LDH/NADH) assay with recombinant PKM2. Format: biochemical. Conditions: for AC50: recombinant human PKM2, n = 3, best-fit value ± std. error; for Emax: recombinant human PKM2, n = 3, normalized to DMSO-treated enzyme, read-out: Recombinant PKM2 Max Activation. On the procedure: (§1) Recombinant Enzyme. An enzyme-coupled assay that measures the depletion of NADH via absorbance at 340 nm and uses lactate dehydrogenase (LDH) was employed to determine the activity of pyruvate kinase (PK). To determine the AC50 (concentration of activator necessary to achieve half-maximal activation) of the different small molecules with PKM2, assays were conducted in a 96-well format using 200 μL/well assay volume with 10 nM human recombinant PKM2 (Sigma, St. Louis, MO, USA, Cat No. SAE0021) or PKM1 (Sigma, […], Cat No. SRP0415), differing concentrations of activator, 0.5 mM PEP, 1 mM ADP, 0.2 mM NADH, and 8 U of LDH in a buffer of 50 mM Tris-HCl (pH 7.4), 100 mM KCl, and 5 mM MgCl2 as previously described. A SPECTROstar Omega plate reader (BMG LABTECH Inc., Cary, NC, USA) monitored absorbance at 340 nm. The MARS software suite was utilized to determine initial velocities. Data were normalized to DMSO (dimethyl sulfoxide)-treated enzyme activity, as previously described.

In data set [1] the target is T2, pyruvate kinase (PK) activity in 661W cells (Mus musculus, UniProt P52480).
T2 construct: endogenous in cells; host or cells: 661W photoreceptor-like cells
As to the kind of experiment: PK activity in 661W cell lysates after 2 h incubation with activator. Type of data set: cell-based. Conditions: for AC50: n = 3; for Emax: n = 3, read-out: 661W Cells Max Activation. On the procedure:
The potency and efficacy of each compound, 1 through 5, was assessed with recombinant human PKM2 using an enzyme-coupled assay that uses lactate dehydrogenase and measures the reduction in NADH via absorbance at 340 nm. […] To assess the ability of this pyridazinoindolone series of compounds to cross cellular membranes and increase PK activity, we utilized 661W cells, which are immortalized photoreceptor-like cells that express cone markers.
Cell culture. Next, 661W cells were incubated with either DMSO or different concentrations of small-molecule PKM2 activator for 2 h, lysed and homogenized in RIPA Lysis and Extraction Buffer (Thermo Fisher, Waltham, MA, USA, Cat No. 89900) with protease inhibitors (Complete-Mini, Roche Diagnostics, Indianapolis, IN, USA), and centrifuged at 10,000 rpm for 10 min to remove cellular debris. The supernatant (4–8 μL) was then used to assess the pyruvate kinase activity as described above. The total protein content was determined using the Pierce BCA protein assay kit (Thermo Fisher, Waltham, MA, USA, Cat No. 23225) with the Pierce™ Bovine Serum Albumin Standard Pre-Diluted Set (Thermo Fisher, Waltham, MA, USA, Cat No. 23208) and used to normalize activity as described previously.

A short description of data set [2]: Aqueous solubility (Eurofins Panlabs, HPLC-UV/Vis). Format: physicochemical. The conditions noted are these: aqueous buffer, kinetic from dmso stock; PBS, pH 7.4, 24 h, room temperature (Table 1). The method, then:
(§2) In brief, each compound was tested at a concentration of 200 μM in PBS, pH 7.4, and room temperature. […] The area of the principal peak in a calibration standard for each compound (200 μM) in organic solvent (60/40 v/v% methanol: water) was compared to the area of the corresponding peak in the PBS sample [42]. Compounds 16–21 underwent solubility testing at Analiza (Cleveland, OH, USA), a contract research organization. Five hundred microliters of PBS, pH 7.4 was added to each amount of compound provided. The samples were vortexed briefly and then placed on a rotary shaker at 200 RPM for 24 h at ambient temperature. Thereafter, the samples were vacuum filtered through a 0.45-micron membrane, and the filtrates were injected into a nitrogen detector for quantification. The nitrogen detector was calibrated using standards, and the filtrates were quantitated based on the calibration curve.

The nature of data set [3]: Aqueous solubility (Analiza, nitrogen detector). Type of data set: physicochemical. Conditions: aqueous buffer, thermodynamic from solid; PBS, pH 7.4, 24 h, ambient temperature (Table 3). The method, then:
as §2

Data set [4] concerns the target T3, pyruvate kinase (PK) activity in rat retina (Rattus norvegicus, UniProt P11980).
T3 construct: the retina from each rat eye was dissected from the RPE-choroid, homogenized, and lysed; from tissue; host or cells: retina of adult Brown-Norway rats
As to the kind of experiment: PK activity in rat retina after intravitreal injection. Type of data set: in vivo. The conditions noted are these: intravitreal injection in rats. The method, then:
The intravitreal injection of medications has revolutionized how numerous retinal diseases are treated and are ever-increasing in ophthalmic clinical practice. Therefore, to assess the ability of these small molecules to activate PK in vivo in the rat retina, we utilized this well-accepted drug delivery method. Two microliters of each respective compound at 850 μM or DMSO were intravitreally injected into rat eyes. The vitreous volume of the rat eye was assumed to be 15 μL, giving a final intravitreal concentration of approximately 100 μM for each compound after injection. Retinas were harvested four hours after injection, lysed, and assayed for PK activity as previously described. The eyes treated with DMSO served as the control upon which PK activation was based.
(§3) Two microliters of each respective compound at 8.5 μM (final vitreous concentration of 1 μM) or DMSO was intravitreally injected into rat eyes, and the PK activity was assessed four hours later.
Animals. Intravitreal injections of various small-molecule PKM2 activators or vehicle (DMSO) were performed in Brown-Norway adult rats. The rats were anesthetized with ketamine (90 mg/mL) and xylazine (10 mg/mL) and their pupils dilated with topical phenylephrine (2.5%) and tropicamide (1%) as described previously. A sclerotomy was created with a 25-gauge microvitreoretinal blade (Walcott Rx Products, Ocean View, NJ, USA) just posterior to the limbus. A blunt 35-gauge cannula was inserted through this sclerotomy into the vitreous cavity to deliver 2 μL of different concentrations of small-molecule activator or DMSO. This injection volume produces minimal reflux with adequate reproducibility. Fifteen microliters of vitreous volume was assumed in rats to calculate the intravitreal concentrations of the compound after injection. As we have previously described, left eyes were treated with small-molecular activator, while right eyes were treated with DMSO, which served as the control upon which pyruvate kinase activation was based. Four hours later, the retina from each rat eye was dissected from the RPE-choroid, homogenized, and lysed in RIPA Lysis and Extraction Buffer with protease inhibitors. The pyruvate kinase (PK) activity assay, as described above, was performed using 4 to 8 microliters of rat retinal lysate, similar to what we and others have previously described. Analogous to the cell culture assays, the total protein of the lysate was used to normalize pyruvate kinase activity.

Another data set addresses T4, recombinant PKM1 (Homo sapiens, UniProt P14618).
T4 construct: purchased Sigma SRP0415
Description: Pyruvate kinase enzyme-coupled assay with recombinant PKM1. Format: biochemical. Conditions: increasing concentrations (Figure 6b). On the procedure: as §3, §1

Where [5] appears, read: final vitreous concentration 1 μM, 4 h (Figure 6a).

T3 sequence (P11980 1-531 isoform P11980-2): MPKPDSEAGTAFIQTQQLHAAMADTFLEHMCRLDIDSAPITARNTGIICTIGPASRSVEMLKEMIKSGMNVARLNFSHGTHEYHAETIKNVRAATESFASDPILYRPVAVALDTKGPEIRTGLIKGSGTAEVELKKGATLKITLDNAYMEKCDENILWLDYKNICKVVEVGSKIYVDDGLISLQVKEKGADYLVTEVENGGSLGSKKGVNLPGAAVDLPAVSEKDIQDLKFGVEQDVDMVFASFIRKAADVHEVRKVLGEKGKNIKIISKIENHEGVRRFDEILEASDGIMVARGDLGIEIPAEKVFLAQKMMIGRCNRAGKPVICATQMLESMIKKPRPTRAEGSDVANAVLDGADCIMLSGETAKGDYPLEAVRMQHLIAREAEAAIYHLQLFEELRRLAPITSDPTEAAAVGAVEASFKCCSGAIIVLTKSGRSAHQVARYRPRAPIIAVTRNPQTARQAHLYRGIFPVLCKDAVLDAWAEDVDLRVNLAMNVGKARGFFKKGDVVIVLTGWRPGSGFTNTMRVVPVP
T1 sequence (P14618 whole entry): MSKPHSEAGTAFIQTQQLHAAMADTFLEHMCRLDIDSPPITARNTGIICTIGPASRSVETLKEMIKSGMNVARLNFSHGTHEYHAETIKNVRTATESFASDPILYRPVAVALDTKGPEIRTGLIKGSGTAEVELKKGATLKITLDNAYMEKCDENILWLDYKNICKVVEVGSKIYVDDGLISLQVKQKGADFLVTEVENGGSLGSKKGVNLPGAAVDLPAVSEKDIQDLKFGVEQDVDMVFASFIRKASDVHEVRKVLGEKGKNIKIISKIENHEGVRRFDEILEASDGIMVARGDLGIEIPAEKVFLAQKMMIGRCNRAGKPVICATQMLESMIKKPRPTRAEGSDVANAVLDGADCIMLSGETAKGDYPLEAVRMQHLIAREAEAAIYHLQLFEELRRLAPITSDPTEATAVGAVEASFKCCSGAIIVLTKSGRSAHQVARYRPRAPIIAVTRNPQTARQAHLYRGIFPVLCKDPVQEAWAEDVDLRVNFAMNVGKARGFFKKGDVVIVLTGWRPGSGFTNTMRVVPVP
T2 sequence (P52480 whole entry): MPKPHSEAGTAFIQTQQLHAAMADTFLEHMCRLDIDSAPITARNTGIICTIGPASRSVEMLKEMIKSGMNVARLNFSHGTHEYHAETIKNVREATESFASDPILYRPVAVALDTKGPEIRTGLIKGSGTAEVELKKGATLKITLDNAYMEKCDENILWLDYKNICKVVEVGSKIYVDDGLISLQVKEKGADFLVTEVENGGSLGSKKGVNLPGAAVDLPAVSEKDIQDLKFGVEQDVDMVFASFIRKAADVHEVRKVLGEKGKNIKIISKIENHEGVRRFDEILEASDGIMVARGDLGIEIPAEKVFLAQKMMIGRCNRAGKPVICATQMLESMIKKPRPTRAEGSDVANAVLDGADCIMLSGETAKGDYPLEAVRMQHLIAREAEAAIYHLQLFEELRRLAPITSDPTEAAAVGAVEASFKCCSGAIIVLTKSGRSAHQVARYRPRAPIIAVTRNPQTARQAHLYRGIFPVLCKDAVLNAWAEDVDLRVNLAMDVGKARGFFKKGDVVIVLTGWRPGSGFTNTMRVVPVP
T4 sequence (P14618 1-531 isoform P14618-2): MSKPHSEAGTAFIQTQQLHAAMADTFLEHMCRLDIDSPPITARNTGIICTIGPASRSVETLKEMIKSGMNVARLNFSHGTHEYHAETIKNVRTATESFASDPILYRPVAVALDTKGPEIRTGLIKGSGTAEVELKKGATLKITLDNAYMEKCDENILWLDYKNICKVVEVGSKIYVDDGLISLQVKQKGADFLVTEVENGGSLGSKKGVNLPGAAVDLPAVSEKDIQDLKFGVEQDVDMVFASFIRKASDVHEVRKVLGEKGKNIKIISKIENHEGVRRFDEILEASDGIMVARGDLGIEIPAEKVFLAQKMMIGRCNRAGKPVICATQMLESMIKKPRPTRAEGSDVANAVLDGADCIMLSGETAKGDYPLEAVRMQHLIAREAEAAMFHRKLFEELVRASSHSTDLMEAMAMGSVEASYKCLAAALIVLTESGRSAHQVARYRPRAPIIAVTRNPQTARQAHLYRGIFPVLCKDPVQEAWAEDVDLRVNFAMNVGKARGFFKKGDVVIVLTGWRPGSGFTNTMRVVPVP

Turning to `Cc1ccc2c3cnn(Cc4ccccc4)c(=O)c3n(C)c2c1` [Compound 1], at human recombinant PKM2, the AC50 was 23 ± 4 nM and the Emax stood at 224 ± 9%. For the same compound, in data set [1], half-maximal activity (AC50) was put at 175 ± 64 nM and the Emax stood at 219 ± 16%. The same compound displayed a solubility at 24 h in data set [2] of less than 0.01 µM.
For `Cn1c2cc([S+](C)[O-])ccc2c2cnn(Cc3ccccc3)c(=O)c21` (stereo not shown) [Compound 3], on human recombinant PKM2, the AC50 worked out at 47 ± 10 nM and the Emax was 279 ± 16%. Further, in data set [1], the activity was half-maximal at 104 ± 32 nM (AC50) and the Emax was determined as 280 ± 17%. The same compound came in with a solubility at 24 h in data set [2] of 12.1 µM (≈ 4.25 µg/mL).
With `CSc1ccc2c3cnn(Cc4cccc(N)c4)c(=O)c3n(C)c2c1` [Compound 4], the figures for the concentration at half-maximal activity (AC50) (at human recombinant PKM2; in data set [1]) were 48 ± 10 nM and 66 ± 19 nM, respectively. Also, the Emax on human recombinant PKM2 is 216 ± 12%; in data set [1], 256 ± 13%. Further, the solubility at 24 h in data set [2] is less than 0.01 µM.
For `Cc1ccc2c3cnn(Cc4cccc(N)c4)c(=O)c3n(C)c2c1` [Compound 5], in that order: 61 ± 12 nM, 132 ± 47 nM, 249 ± 14%, 236 ± 16% and 12.7 µM (≈ 4.04 µg/mL).
With `Cc1cccc(Cn2ncc3c4cc(F)c(CN5CCOCC5)cc4n(C)c3c2=O)n1` [Compound 16], at human recombinant PKM2, the AC50 was determined as 65 ± 8 nM and the Emax is 224 ± 8%. In data set [1], the AC50 turned out to be 162 ± 46 nM and the Emax was determined as 268 ± 15%. The compound further returned a solubility at 24 h in data set [3] of 397 µM (≈ 167 µg/mL).
The like results for `Cc1cccc(Cn2ncc3c4cc(F)c(CNCCO)cc4n(C)c3c2=O)n1` [Compound 17] were, in that order, 58 ± 5 nM, 213 ± 6%, 1620 ± 428 nM, 430 ± 33% and 1120 µM (≈ 442 µg/mL).
For the compound `Cc1cccc(Cn2ncc3c4cc(F)c(CN5CCCC5)cc4n(C)c3c2=O)n1` [Compound 18], at human recombinant PKM2, the AC50 amounted to 64 ± 4 nM and the Emax was found to be 245 ± 5%. In addition, in data set [1], half-maximal activity (AC50) was put at 106 ± 27 nM and the Emax was 257 ± 12%. The “PK activity increase, less than that observed with ML-265” value in data set [4] (setting [5]) is 20–30%. The solubility at 24 h in data set [3] is 858 µM (≈ 348 µg/mL).
Consider `Cc1cccc(Cn2ncc3c4cc(F)c(CN(C)C)cc4n(C)c3c2=O)n1` [Compound 19], for which, on human recombinant PKM2, the AC50 is 83 ± 9 nM and the Emax is 266 ± 9%. Also, in data set [1], the AC50 was 222 ± 81 nM and the Emax was found to be 297 ± 22%. The “PK activity increase, less than that observed with ML-265” value in data set [4] (setting [5]) is on record as 20–30%. Also, the “activation of recombinant PKM1” value at recombinant PKM1 is “did not activate”.
As for `Cn1c2cc(CNCCO)c(F)cc2c2cnn(Cc3ccccc3F)c(=O)c21` [Compound 20], the figures for the AC50 (on human recombinant PKM2; in data set [1]) were 62 ± 11 nM and 93 ± 29 nM, respectively. The Emax at human recombinant PKM2 was found to be 239 ± 12%; in data set [1], 288 ± 17%. The same compound returned a solubility at 24 h in data set [3] of 462 µM (≈ 184 µg/mL).
`Cn1c2cc(CN3CCNCC3)c(F)cc2c2cnn(Cc3ccccc3F)c(=O)c21` [Compound 21]: at human recombinant PKM2, the half-maximal activity concentration (AC50) stood at 66 ± 10 nM and the Emax was 339 ± 16%. Further, in data set [1], the AC50 stood at 72 ± 24 nM and the Emax stood at 299 ± 18%. For the same compound, the “PK activation in rat retina compared with ML-265” value in data set [4] (setting [5]) is recorded as “approximately a third of the retinal PK activation as that achieved with ML-265”. In data set [3], this compound yielded a solubility at 24 h of 334 µM (≈ 141 µg/mL).
Take `Cn1c2cc([S+](C)[O-])sc2c2cnn(Cc3cccc(N)c3)c(=O)c21` (stereo not shown) [ML-265, reference compound]: the Emax at human recombinant PKM2 is 292 ± 21%; in data set [1] it was 370 ± 21%; in data set [4] (rat, increasing concentrations, retina 4 h, normalized to DMSO, read-out: in vivo PK activity (maximum activation)), 202 ± 8%. For the same compound, the AC50 was 108 ± 32 nM in data set [1] and 866 ± 176 nM in data set [4] (increasing concentrations, retina 4 h, read-out: in vivo AC50).
